In patent US4859779A, “Dopamine-β-hydroxylase inhibitors” (SmithKline Beckman Corporation, priority 1989, dated 1989):
Structures can show the parent of a compound that is named as a salt.

Experiments:
[1] = molecular target: T1, DBH (Homo sapiens, UniProt P09172); conditions: literature reports; cited from earlier work
T1 sequence (P09172 1-617): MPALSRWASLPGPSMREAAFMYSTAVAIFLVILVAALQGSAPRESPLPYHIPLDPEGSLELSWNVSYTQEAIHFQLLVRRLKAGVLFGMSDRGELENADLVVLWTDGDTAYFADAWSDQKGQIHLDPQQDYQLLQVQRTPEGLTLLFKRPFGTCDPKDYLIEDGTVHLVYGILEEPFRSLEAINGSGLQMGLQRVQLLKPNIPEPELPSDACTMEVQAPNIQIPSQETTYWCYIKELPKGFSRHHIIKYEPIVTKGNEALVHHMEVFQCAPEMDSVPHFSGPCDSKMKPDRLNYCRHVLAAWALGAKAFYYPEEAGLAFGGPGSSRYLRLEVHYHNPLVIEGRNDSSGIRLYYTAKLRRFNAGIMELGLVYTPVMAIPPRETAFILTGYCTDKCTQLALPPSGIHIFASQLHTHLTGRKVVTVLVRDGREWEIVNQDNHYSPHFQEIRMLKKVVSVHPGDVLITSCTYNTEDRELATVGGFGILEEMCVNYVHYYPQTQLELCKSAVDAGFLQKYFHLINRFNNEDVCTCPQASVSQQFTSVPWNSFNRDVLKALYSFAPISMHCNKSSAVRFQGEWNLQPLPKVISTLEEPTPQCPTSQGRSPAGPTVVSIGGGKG

[2] = Ehrreich et al., 1976; cited from earlier work
[3] = tested on: spontaneously hypertensive rats; experiment: mean arterial blood pressure in spontaneously hypertensive rats (indwelling tail artery cannulae); assay type: in vivo, rat; conditions: 50 mg/kg intraperitoneally
Method: Further, spontaneously hypertensive rats were treated with a suspension or solution of N-(2-aminoethyl)-1-(3,5-difluorobenzyl)-2-mercaptoimidazole-5-carboxamide,formate at a dose of 50 mg/kg intraperitoneally, and mean arterial blood pressure was monitored for 260 minutes using indwelling cannulae in the tail arteries.

| Structure (SMILES) | DBH inhibition (in words) [1] | other results |
| --- | --- | --- |
| O=C(O)c1ccc(CCC(Br)CBr)cn1 (stereo not drawn) [5-(3,4-dibromobutyl)picolinic acid] | DBH inhibitors |  |
| O=C(O)c1ccc(CCCCCl)cn1 [5-(4-chlorobutyl) picolinic acid] | inhibit DBH |  |
| CN(C)C(=S)SCc1ccc(C(=O)O)nc1 [5-(dimethyldithiocarbamoylmethyl)picolinic acid] | DBH inhibitors |  |
| NOCc1ccccc1 [Benzyloxyamine] | apparently act as competitive inhibitors |  |
| CCCCc1ccc(C(N)=O)nc1 [Bupicomide, 5-(n-butyl)picolinamine] | DBH inhibitor | antihypertensive activity [2]: antihypertensive activity |
| NCCNC(=O)c1cnc(S)n1Cc1cc(F)cc(F)c1 [N-(2-Aminoethyl)-1-(3,5-difluorobenzyl)-2-mercaptoimidazole-5-carboxamide,formate] |  | blood pressure reduction compared to vehicle-treated controls ([3]; suspension or solution, mean arterial blood pressure, within 30 minutes following treatment): significant blood pressure reductions; time to significant blood pressure reduction ([3]; versus vehicle-treated controls): ≤ 30 min |
| NNCc1ccccc1 [benzylhydrazine] | apparently act as competitive inhibitors |  |
